Experimental data from patent publication US20240287172A1, “PROTEIN BINDERS TO IRHOM2 EPITOPES” (SCIRHOM GMBH, priority 2019, published 2024).

System: PMA-induced release of endogenous TNFα from human monocytic U-937 cells
Assay: ELISA-based TNFα release assay, PMA-induced, U-937 cells
Assay type: cell-based
Details: U-937, 1 h, PMA 25 ng/ml, Batimastat at 10 μM
Procedure: In brief, on day 1, Nunc black MaxiSorp® 96-well plates (Thermo Fisher Scientific, USA) were coated overnight with 100 μl per well of mouse anti-human TNFα capture antibody (provided as part of the DuoSet ELISA kit) at 4 μg/ml TBS at 4° C. On day 2, the capture antibody solution was removed and MaxiSorp® plates were blocked with 300 μl per well of TBS, 1% BSA at room temperature for 1-2 hours. Meanwhile, 80,000 U-937 (European Collection of Authenticated Cell Cultures, UK) cells in 80 μl of normal growth medium were seeded in each well of Greiner CELLSTAR V-bottom 96-well plates (Thermo Fisher Scientific, USA) and pre-incubated with 20 μl per well of standard growth medium supplemented with Batimastat (BB94, Abcam, UK) at 50 μM as positive control (for a final concentration of 10 μM in the resulting 100 μl sample volume), mouse IgG antibody (Thermo Fisher Scientific, USA) at 5 μg/ml as isotype control (for a final concentration of 1 μg/ml in the resulting 100 μl sample volume) or antibodies of the invention at 5 μg/ml (for a final concentration of 1 μg/ml in the resulting 100 μl sample volume) at 37° C., 5% CO2 for 30 minutes. […] Using an infinite M1000 (Tecan Group, Switzerland) microplate reader, the fluorescence of each well was collected at an excitation wavelength of 435 nm and an emission wavelength of 555 nm. […]

## CNC(=O)[C@H](Cc1ccccc1)NC(=O)[C@H](CC(C)C)[C@H](CSc1cccs1)C(=O)NO [Batimastat]
Murine (m) and chimeric (ch) antibodies and IgG at 3 μg/ml
  inhibition at 10 µM: 98.7%
Recombinant murine antibodies and IgG at 1 μg/ml
  inhibition at 10 µM: 100%
